Experimental data as given in publication doi:10.1101/2021.10.07.463234v2 (biorxiv, 2021).
Structures can show the parent of a compound that is named as a salt.

These compounds were tested against SARS-CoV-2 Mac1 (Severe acute respiratory syndrome coronavirus 2, UniProt P0DTD1) (assay: biochemical). Settings: 100 µM; inhibitor.

Q: Which “%inhibition” value does the source give for `CCCCCCNC(=O)n1cc(F)c(=O)[nH]c1=O` [Carmofur] here?
A: Its value is 16.37%.

Q: With `COc1ccccc1OCCNCC(O)COc1cccc2[nH]c3ccccc3c12` (centres unmarked) [Carvedilol Phosphate] as the compound, how does the “%inhibition” value read?
A: Its value is 0%.

Q: How did the “%inhibition” value turn out when `COc1ccccc1OCCNCC(O)COc1cccc2[nH]c3ccccc3c12` (centres unmarked) [Carvedilol] was run?
A: Its value is 23.79%.

Same assay, conditions: read-out: %inhibition

Q: For `CN(C)CCOC(c1ccc(Cl)cc1)c1ccccn1` (centres unmarked) [CarbinoxaMine Maleate], which inhibition at 100 µM is on record?
A: The inhibition at 100 µM was 0%.

Q: For `CCCCC[C@](C)(O)/C=C/[C@@H]1[C@@H](C/C=C\CCCC(=O)O)[C@@H](O)C[C@H]1O` [Carboprost], which inhibition at 100 µM is on record?
A: Its inhibition at 100 µM is 17.6%.

Q: How did the inhibition at 100 µM turn out when `CC(C(=O)O)c1ccc2c(c1)[nH]c1ccc(Cl)cc12` (centres unmarked) [Carprofen] was run?
A: Its inhibition at 100 µM is 0%.

Q: Which inhibition at 100 µM does the source give for `O=c1[nH]c(=O)c2ccccc2o1` [Carsalam] here?
A: The inhibition at 100 µM was 0%.

Q: How did the inhibition at 100 µM turn out when `CC(C)(C)NCC(O)COc1cccc2c1CCC(=O)N2` (centres unmarked) [Carteolol HCl] was run?
A: Its inhibition at 100 µM is 3.36%.

Q: Which inhibition at 100 µM does the source give for `NS(=O)(=O)c1ccc(C(=O)O)cc1` [Carzenide] here?
A: The inhibition at 100 µM was 0%.

Q: With `CC[C@H](C)C[C@H](C)CCCCCCCCC(=O)N[C@H]1C[C@@H](O)[C@@H](NCCN)NC(=O)[C@@H]2[C@@H](O)CCN2C(=O)[C@H]([C@H](O)CCN)NC(=O)[C@H]([C@H](O)[C@@H](O)c2ccc(O)cc2)NC(=O)[C@@H]2C[C@@H](O)CN2C(=O)[C@H]([C@@H](C)O)NC1=O` [Caspofungin Acetate] as the compound, how does the inhibition at 100 µM read?
A: The inhibition at 100 µM was 0%.

Q: For `COc1cc2c(Oc3ccc4[nH]c(C)cc4c3F)ncnc2cc1OCCCN1CCCC1` [Cediranib (AZD2171)], which inhibition at 100 µM is on record?
A: Its inhibition at 100 µM is 51.1%.

Q: With `N[C@@H](C(=O)N[C@@H]1C(=O)N2C(C(=O)O)=C(Cl)CS[C@H]12)c1ccccc1` [Cefaclor] as the compound, how does the inhibition at 100 µM read?
A: Its inhibition at 100 µM is 0%.

Q: With `CC1=C(C(=O)O)N2C(=O)[C@@H](NC(=O)[C@H](N)c3ccc(O)cc3)[C@H]2SC1` [Cefadroxil hydrate] as the compound, how does the inhibition at 100 µM read?
A: The inhibition at 100 µM was 0%.

Q: `Cn1nnnc1SCC1=C(C(=O)O)N2C(=O)[C@@H](NC(=O)[C@H](OC=O)c3ccccc3)[C@H]2SC1` [Cefamandole nafate] was tested. Which inhibition at 100 µM did it give?
A: The inhibition at 100 µM was 0%.

Q: How did the inhibition at 100 µM turn out when `Cc1nnc(SCC2=C(C(=O)O)N3C(=O)[C@@H](NC(=O)Cn4cnnn4)[C@H]3SC2)s1` [Cefazolin Sodium] was run?
A: The inhibition at 100 µM was 2.52%.

Q: With `CC/C=C(\C(=O)N[C@@H]1C(=O)N2C(C(=O)OCOC(=O)C(C)(C)C)=C(COC(N)=O)CS[C@H]12)c1csc(N)n1` [Cefcapene Pivoxil Hydrochloride] as the compound, how does the inhibition at 100 µM read?
A: Its inhibition at 100 µM is 0.547%.

Q: `CO/N=C(\C(=O)N[C@@H]1C(=O)N2C(C(=O)OCOC(=O)C(C)(C)C)=C(/C=C\c3scnc3C)CS[C@H]12)c1csc(N)n1` [Cefditoren Pivoxil] was tested. Which inhibition at 100 µM did it give?
A: The inhibition at 100 µM was 0%.

Q: How did the inhibition at 100 µM turn out when `CO/N=C(\C(=O)N[C@@H]1C(=O)N2C(C(=O)O)=C(C[N+]3(C)CCCC3)CS[C@H]12)c1csc(N)n1` [Cefepime Dihydrochloride Monohydrate] was run?
A: Its inhibition at 100 µM is 0%.

Q: `C=CC1=C(C(=O)O)N2C(=O)[C@@H](NC(=O)/C(=N\OCC(=O)O)c3csc(N)n3)[C@H]2SC1` [Cefixime] was tested. Which inhibition at 100 µM did it give?
A: Its inhibition at 100 µM is 0%.

Q: How did the inhibition at 100 µM turn out when `CO/N=C(\C(=O)N[C@@H]1C(=O)N2C(C(=O)O)=C(CSc3nnnn3C)CS[C@H]12)c1csc(N)n1` [Cefmenoxime hydrochloride] was run?
A: The inhibition at 100 µM was 0%.

Q: How did the inhibition at 100 µM turn out when `CO[C@@]1(NC(=O)CSCC#N)C(=O)N2C(C(=O)O)=C(CSc3nnnn3C)CS[C@@H]21` [Cefmetazole sodium] was run?
A: Its inhibition at 100 µM is 8.58%.

Q: With `O=C(O)C1=C(CSc2nnnn2CS(=O)(=O)O)CS[C@@H]2[C@H](NC(=O)[C@H](O)c3ccccc3)C(=O)N12` [Cefonicid sodium] as the compound, how does the inhibition at 100 µM read?
A: Its inhibition at 100 µM is 0%.

Q: With `CCN1CCN(C(=O)N[C@@H](C(=O)N[C@@H]2C(=O)N3C(C(=O)O)=C(CSc4nnnn4C)CS[C@H]23)c2ccc(O)cc2)C(=O)C1=O` [Cefoperazone] as the compound, how does the inhibition at 100 µM read?
A: Its inhibition at 100 µM is 0%.

Q: `NCc1ccccc1CC(=O)N[C@@H]1C(=O)N2C(C(=O)O)=C(CSc3nnnn3CC(=O)O)CS[C@H]12` [Ceforanide] was tested. Which inhibition at 100 µM did it give?
A: Its inhibition at 100 µM is 0%.

Q: With `CO/N=C(\C(=O)N[C@@H]1C(=O)N2C(C(=O)O)=C(Cn3ccc(=N)n3CCO)CS[C@H]12)c1csc(N)n1` [Cefoselis Sulfate] as the compound, how does the inhibition at 100 µM read?
A: Its inhibition at 100 µM is 22.8%.

Q: `CO/N=C(\C(=O)N[C@@H]1C(=O)N2C(C(=O)O)=C(COC(C)=O)CS[C@H]12)c1csc(N)n1` [Cefotaxime sodium] was tested. Which inhibition at 100 µM did it give?
A: The inhibition at 100 µM was 0.981%.
